In patent US20120149080A1, “YEAST PRODUCTION CULTURE FOR THE PRODUCTION OF BUTANOL” (Butamax(TM) Advanced Biofuels LLC, priority 2010, published 2012):

Key:
Assay in all cases: 24 h survival (CFU) of non-Saccharomyces yeast, HCD/LCD
Format in all cases: cell-based
Conditions in all cases: for Percent Survival HCD: high cell density; for Percent Survival LCD: low cell density
Pichia sp. PNY0574 = test system: Pichia sp. PNY0574
Method: (§1) Non-Saccharomyces yeast strains were tested to determine whether isobutanol tolerance is affected by cell density for these yeasts. Kluyveromyces marxianus PNY0577 (American Type Culture Collection (“ATCC”), Manassas, Va.; ATCC #8554), Kluyveromyces marxians PNY0578 (ATCC #16045), Pichia membranifaciens PNY0572, Pichia anomala PNY0573, Pichia sp. PNY0574, Issatchenkia orientalis PNY0575 and Issatchenkia orientalis PNY0576 were tested. The Pichia and Issatchenkia strains used are wild-type representatives of the designated genera. Other representative strains are commercially available, for example, from ATCC.
(§2) The non-Saccharomyces yeast strains were plated from freezer vials onto YPD agar (Teknova, Hollister, Calif.) and incubated overnight at 30° C. Cells from each strain from the YPD plates were inoculated into a 25 ml pre-culture of YPD broth) (Teknova, Hollister, Calif.) with an initial OD600 of 0.06 to 0.08 and grown for 7 hours in an aerobic shaker at 30° C. An aliquot of each pre-culture was inoculated into 200 ml YPD broth, to provide an initial OD600 of 0.06 to 0.08 and the resulting culture was incubated with aeration at 30° C. for approximately 17 hours. The optical density of the culture was measured, the culture was centrifuged and the cells were resuspended to yield an OD600 of 5 in fresh YPD broth. This is referred to as a high cell density (HCD) culture. This culture was diluted 100 fold into fresh YPD broth to give a culture with an OD600 of 0.05. This is referred to as a low cell density (LCD) culture. These cultures were incubated at 30° C. with shaking for 30 minutes for an acclimation period. At the end of the 30 minute acclimation period, the OD600 was measured.
(§3) 5 ml of low or high cell density culture was dispensed to 15 ml conical tubes which contained the concentrations of isobutanol to be tested. The tubes were placed in a rotary drum at 30° C. and incubated for 24 hours. The isobutanol concentration was 1.0% or 2.0%. A control culture for each strain contained no isobutanol. The time of addition of cells was “time 0”. […] All samples were filtered with Acrodisc CR PTFE 0.2 μm filters (Pall Life Sciences, Port Washington, N.Y.) and analyzed using a Shodex SH1011 column (8 mm ID×300 mm length; Showa Denko America, Inc., New York, N.Y.) and a Shodex SH-G as a guard column. The injection volume was 10 μL. The mobile phase was 0.01N sulfuric acid. The column temperature was 50° C. with a mobile phase flow rate of 0.5 mL/min. For detection, a photometric detector at 210 nm and a refractive index detector were used.
(§4) Colony forming units (CFUs) were determined on YPD plates at time 0 for the controls and at 24 hours for all samples, including the control cultures, using standard microbiological methods. Essentially, cells were serially diluted in a microtiter plate (20 μl of the culture and 180 μl of YPD broth) and 10 μl of the various dilutions were spotted onto triplicate agar plates and incubated at 30° C. for 24 and 48 hours. Colonies were counted after 48 hours and CFUs/ml were calculated. The percent survival was calculated based on the CFUs/ml of the 24 hour HCD or LCD control culture for each strain and results are given in Table 3.

[1] = test system: Issatchenkia orientalis PNY0575
Method: as §1, §2, §3, §4

[2] = test system: Kluyveromyces marxianus PNY0578
Method: as §1, §2, §3, §4

Pichia anomala PNY0573 = test system: Pichia anomala PNY0573
Method: as §1, §2, §3, §4

[3] = test system: Issatchenkia orientalis PNY0576
Method: as §1, §2, §3, §4

[4] = test system: Kluyveromyces marxianus PNY0577
Method: as §1, §2, §3, §4

[5] = test system: Pichia membranifaciens PNY0572
Method: as §1, §2, §3, §4

## CC(C)CO [Isobutanol, isobutanol]
Pichia sp. PNY0574; PNY0574, 1% isobutanol
  Percent Survival HCD: 100%
  Percent Survival LCD: 10%
Pichia sp. PNY0574; PNY0574, 2% isobutanol
  Percent Survival HCD: 100%
  Percent Survival LCD: 0.5%
[1]; PNY0575, 1% isobutanol
  Percent Survival HCD: 61.3%
  Percent Survival LCD: 3.1%
[1]; PNY0575, 2% isobutanol
  Percent Survival HCD: <0.001%
  Percent Survival LCD: <0.001%
[2]; PNY0578, 1% isobutanol
  Percent Survival HCD: 51%
  Percent Survival LCD: <0.001%
[2]; PNY0578, 2% isobutanol
  Percent Survival HCD: <0.001%
  Percent Survival LCD: <0.001%
Pichia anomala PNY0573; PNY0573, 1% isobutanol
  Percent Survival HCD: 75.6%
  Percent Survival LCD: 0.1%
Pichia anomala PNY0573; PNY0573, 2% isobutanol
  Percent Survival HCD: <0.001%
  Percent Survival LCD: <0.001%
[3]; PNY0576, 1% isobutanol
  Percent Survival HCD: 50%
  Percent Survival LCD: 12.8%
[3]; PNY0576, 2% isobutanol
  Percent Survival HCD: <0.001%
  Percent Survival LCD: <0.001%
[4]; PNY0577, 1% isobutanol
  Percent Survival HCD: 39.5%
  Percent Survival LCD: 0.1%
[4]; PNY0577, 2% isobutanol
  Percent Survival HCD: <0.001%
  Percent Survival LCD: <0.001%
[5]; PNY0572, 1% isobutanol
  Percent Survival HCD: 80.6%
  Percent Survival LCD: 2.7%
[5]; PNY0572, 2% isobutanol
  Percent Survival HCD: <0.001%
  Percent Survival LCD: <0.001%
